Patent US20220226338A1, “Methods of Treating Cancer Using CHK1 Inhibitors” (Sierra Oncology, Inc., priority 2019, published 2022)
Read-outs that look alike come from different tables or passages of the source.

Columns and labels:
[1] = target: T1, Chk1 (Homo sapiens, UniProt O14757); details: previously found; Walton et al. Oncotarget 2016; cited from earlier work
T1 sequence (O14757 1-476): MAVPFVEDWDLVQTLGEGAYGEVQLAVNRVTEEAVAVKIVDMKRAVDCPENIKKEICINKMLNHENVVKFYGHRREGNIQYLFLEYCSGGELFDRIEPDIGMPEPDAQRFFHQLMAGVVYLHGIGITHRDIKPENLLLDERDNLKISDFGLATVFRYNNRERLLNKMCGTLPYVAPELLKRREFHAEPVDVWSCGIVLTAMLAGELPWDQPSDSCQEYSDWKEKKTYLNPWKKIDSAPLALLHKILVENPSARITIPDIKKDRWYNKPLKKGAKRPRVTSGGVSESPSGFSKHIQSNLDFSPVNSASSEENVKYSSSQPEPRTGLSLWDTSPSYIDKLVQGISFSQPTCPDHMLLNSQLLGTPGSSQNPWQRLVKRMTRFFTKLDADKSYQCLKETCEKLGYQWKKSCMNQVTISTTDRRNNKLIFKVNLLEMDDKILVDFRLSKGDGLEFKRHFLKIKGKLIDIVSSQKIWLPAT

[2] = test system: plasma protein; assay: Plasma protein binding, ultracentrifugation, mouse plasma; type: in vitro ADME; details: for Percentage Bound / Percentage Free: Mouse plasma
Method: (§1) The PK of SRA737 have been determined in the mouse, rat, dog and monkey following oral and IV administration (Table 3). […] An acceptable terminal elimination t1/2 was also observed in each species. […] The plasma protein binding of SRA737 at 1 and 10 μM was examined in mouse, minipig, monkey and human plasma using ultracentrifugation and in dog plasma (10 μM) using rapid equilibrium dialysis.

[3] = Single dose PK, dog; type: in vivo; details: Dog oral 5 mg/kg single dose
Description: (§2) Several studies have been conducted to evaluate the PK properties of SRA737, such as the absorption (in vitro permeability assays and in vivo PK following IV and oral administration), distribution (in vivo tissue distribution and in vitro plasma protein binding) and metabolism (in vitro hepatocyte and CYP inhibition and induction studies) of SRA737.
as §1

[4] = GLP 28-day repeat oral dose toxicity and toxicokinetics, minipig; type: in vivo
Method: (§3) Reference source not found.6.
(§4) These findings were reversible on cessation of drug administration.
(§5) The MTD was 75 mg/kg/day (225 mg/m^2/day) in the mouse and the HNSTD was […] (350 mg/m^2/day) in the minipig.

[5] = test system: cancer xenograft models; assay: In vivo efficacy studies in xenograft, PDX and syngeneic models; parameters: species or system mouse
Method: A program of in vivo efficacy studies was performed to assess the activity of SRA737 in combination with genotoxic chemotherapy and targeted agents, and as monotherapy.
One of these models also carried a MYCN amplification. A fourth HGSOC PDX model with partial resistance to PARPi was also sensitive to high dose SRA737 monotherapy.

[6] = SRA737 monotherapy clinical study (SRA737-01), safety and tolerability; type: in vivo
Method: A Phase 1 clinical trial was conducted in ‘all comers,’ i.e. no genetic selection was performed, to establish safety, tolerability and pharmacokinetics (“Dose Escalation Phase”). Cohorts consisting initially of a single subject received escalating doses of SRA737, starting in Cohort 1 with 20 mg/day administered orally on a continuous daily dosing schedule in 28 day cycles. the dose was escalated until the maximum tolerated dose (MTD) was identified.
In the Dose Escalation Phase, 18 subjects received SRA737 in 9 dose level cohorts, from 20 to 1300 mg QD; median treatment duration 62.5 days (range 1 to 226). […] Two of 3 subjects experienced DLTs at the 1300 mg once daily dose, each being an inability to receive 75% of the planned SRA737 dose due to GI intolerability, with the individual GI effects being low grade. […] A cohort receiving 500 mg twice daily was added to determine if a twice daily dosing schedule can improve GI tolerability, given the half-life of SRA737 is approximately 10 hours. One of 6 subjects experienced DLTs in the 500 mg twice daily cohort; this was an inability to receive 75% of the planned SRA737 dose due to grade 4 thrombocytopenia with grade 3 neutropenia and anemia.
A Dose Escalation phase employed an accelerated titration design starting at 20 mg SRA737, administered QD orally in 28-day cycles. Incremental dose escalations in single-subject cohorts were followed by a rolling-6 design once SRA737-related ≥Grade 2 toxicity was observed during Cycle 1.
Dose limiting toxicities (DLTs) were assessed following a pharmacokinetic (PK) lead-in dose, and throughout Cycle 1 of treatment, and were defined as adverse events highly probably or probably related to SRA737: grade ≥4 neutropenia or thrombocytopenia lasting >7 days, grade ≥3 febrile neutropenia or thrombocytopenia with bleeding, grade ≥3 non-hematologic toxicity, or the inability to receive ≥75% of the planned SRA737 dose in Cycle 1 due to drug-related toxicity.

[7] = Single dose PK, rat; type: in vivo; details: Rat oral 10 mg/kg single dose
Description: as §2, §1

[8] = mouse, in vivo
Method: as §3, §4, §5

[9] = test system: plasma protein; assay: Plasma protein binding, ultracentrifugation, minipig plasma; type: in vitro ADME
Method: as §1

In the case of `N#Cc1cnc(Nc2cc(NCC3CNCCO3)c(C(F)(F)F)cn2)cn1` (centres unmarked) [SRA737, 5-[[4-[[morpholin-2-yl]methylamino]-5-(trifluoromethyl)-2-pyridyl]amino]pyrazine-2-carbonitrile], the “inhibitor of Chk1” value [1] is listed as “potent and selective inhibitor of Chk1 with limited off-target activity against other kinases”, the “Percentage Bound” value ([2]; 1 μM) is listed as 94.5% and the “Percentage Free” value ([2]; 1 μM) is listed as 5.5%. The “Percentage Bound” value ([2]; 10 μM) was 93.4%, the “Percentage Free” value ([2]; 10 μM) was 6.6% and the plasma protein binding ([2]; mouse) was roughly 94%. The Foral [3] was 86%, the “changes in reproductive organs” value ([4]; minipig) was “changes in reproductive organs, particularly the testes, were also observed” and the “toxicological findings in the GI tract” value ([4]; minipig) was “Toxicological findings in the GI tract were also observed”. The dose-dependent toxicological findings ([4]; minipig pivotal study, reversible on cessation of drug administration) was “bone marrow toxicity”, the “synergy with gemcitabine and carboplatin” value ([5]; Calu6 model, data not shown) was “Synergy” and the “antitumor activity as a single agent” value ([5]; HGSOC PDX models harboring CCNE1 amplifications accompanied by TP53 mutations, data not shown) was “Significant antitumor activity”. For the same compound, the “synergy with low-dose gemcitabine” value ([5]; HT29 (FIG. 5), OVCAR3 and SJSA-1 CDX models, PDX model of TNBC) was “Synergy was also observed”, the “antitumor activity in combination with standard-dose gemcitabine” value ([5]; HT29, SJSA-1, SW620, Calu6, KPC-1 and patient-derived bladder carcinoma xenograft models, data not shown) was “Significant, dose-dependent antitumor activity” and the synergy with irinotecan ([5]; HT29 model, data not shown) was “Synergy”. For the same compound, the single agent efficacy ([5]; OVCAR3, Eμ-Myc, MOLM-13, TH-MYC, MDA-MB-231, Renca and LL/2 models, data not shown) was “demonstrated single agent efficacy”, the “sensitivity to high dose SRA737 monotherapy” value ([5]; fourth HGSOC PDX model with partial resistance to PARPi) was “sensitive” and the “antitumor activity in combination with a PD1/PD-L1 inhibitor” value ([5]; syngeneic mouse models mTmG, MC38 and Pan02, data not shown) was “Significant antitumor activity”. For the same compound, the AST increased ([6]; human, in vivo) was 3%, the “TEAEs mild to moderate in severity (Grade 1/Grade 2)” value ([6]; human, in vivo) was 90% and the abdominal pain ([6]; human, in vivo) was 3%. The abdominal pain upper ([6]; human, in vivo) was 3%, the “diarrhea, most common TEAEs” value ([6]; human, in vivo) was 68% and the disease progression ([6]; human, in vivo) was 8%. The “dose-limiting toxicities (DLTs)” value ([6]; human, in vivo) was “without any dose-limiting toxicities”, the dyspnea ([6]; human, in vivo) was 3% and the “emergent or cumulative toxicity and/or declining tolerability” value ([6]; human, in vivo) was “No evidence of emergent or cumulative toxicity and/or declining tolerability”. For the same compound, the fatigue ([6]; human, in vivo) was 3%, the “fatigue, most common TEAEs” value ([6]; human, in vivo) was 47% and the hyponatremia ([6]; human, in vivo) was 4%. It also gave an infection ([6]; human, in vivo) of 4%, a lymphocyte count decreased ([6]; human, in vivo) of 5% and a nausea ([6]; human, in vivo) of 3%. For the same compound, the “nausea, most common TEAEs” value ([6]; human, in vivo) was 66%, the neutropenia ([6]; human, in vivo) was 8% and the pleural effusion ([6]; human, in vivo) was 3%. The rash maculo-papular ([6]; human, in vivo) was 3%, the recommended monotherapy dose ([6]; human, in vivo) was 800 mg/day and the “subjects with at least one SRA737-related event” value ([6]; human, in vivo) was 91%. For the same compound, the “tolerability of 800 mg once daily” value ([6]; human, in vivo) was “overall better tolerated than 1000 mg”, the “vomiting, most common TEAEs” value ([6]; human, in vivo) was 51% and the “subjects experiencing DLTs” value ([6]; human, in vivo, 28 days) was 3 subjects. The “maximum tolerated dose (MTD)” value ([6]; monotherapy) was 1000 mg/day, the “recommended dose for expansion cohorts (RP2D)” value ([6]; monotherapy) was 800 mg QD and the “relatedness of Grade 5 TEAEs” value ([6]; monotherapy) was “none were considered related to SRA737”. The “subjects with treatment-emergent adverse events (TEAEs)” value ([6]; monotherapy) was 106 (99%) n (%), the “maximum tolerated dose (MTD)” value ([6]; monotherapy, once daily) was 1000 mg QD and the “maximum tolerated dose (MTD)” value ([6]; monotherapy, twice daily) was 500 mg BID. For the same compound, the “number of Grade 5 TEAEs” value ([6]; monotherapy, up to 30-days post last treatment) was “Six”, the Foral [7] was 42% and the “changes in reproductive organs” value [8] was “changes in reproductive organs, particularly the testes, were also observed”. The dose-dependent toxicological findings [8] was “bone marrow toxicity”, the “Percentage Bound” value ([9]; 1 μM) was 85.2% and the “Percentage Free” value ([9]; 1 μM) was 14.9%. The “Percentage Bound” value ([9]; 10 μM) was 75.5% and the “Percentage Free” value ([9]; 10 μM) was 24.5%.
